Laboratory results: US8871796B2, “Diaryl ether derivatives as notch sparing gamma secretase inhibitors” (Merck Sharp & Dohme Corp., priority 2009, dated 2014)
Like-named read-outs stand apart in the source and are kept apart here.

Assay: APP processing: AlphaLisa assay of secreted Aβ40 and Aβ42 from SP4CT cells
Assay type: cell-based
Conditions: Homo sapiens, SH-SY5Y cells expressing amyloid β protein (SP4CT cells)
Experimental: APP Processing (Assay Quantitates Secreted Aβ Analytes from Cell Lines):
The effect of compounds on the abundance of Aβ40 and Aβ42 peptides generated from SH-SY5Y cells expressing amyloid β protein (SP4CT cells) are determined by an AlphaLisa™ assay. Analogous to an ELISA assay, generation of […] AlphaLisa™ assay requires “donor” and “acceptor” beads to be brought in close proximity by specific antibody recognition of either Aβ40 or Aβ42 peptides. The assay is accomplished by removing media from compound-treated SP4CT cells to two different microplates, followed by the addition of donor beads conjugated with streptavidin binding a biotinylated anti-amyloid β monocolonal antibody (clone 4G8). Acceptor beads directly conjugated with anti-Aβ40 monoclonal antibody (G210) are added to one microplate and anti-Aβ42 monoclonal antibody (12F4) acceptor beads were added to the other. Abundance of Aβ40 and Aβ42 is directly proportional to the luminescent signal generated following excitation of donor beads by laser light.

[1] = read-out: IC50, inhibition of production of Aβ40 peptide
[2] = read-out: IC50, inhibition of production of Aβ42 peptide

IC50 [1] [nM]	IC50 [2] [nM]	SMILES
< 200	< 200	CCn1nc(-c2cccc(C(C)(C)NS(=O)(=O)CC(F)(F)F)c2)cc1Oc1ccc(C(C)(C)C)cc1 [Example 60, N-(1-{3-[5-(4-tert-butylphenoxy)-1-ethyl-1H-pyrazol-3-yl]phenyl}-1-methylethyl)-2,2,2-trifluoroethanesulfonamide]
< 200	< 200	CCn1nc(-c2cccc(C(C)(C)NS(=O)(=O)CC(F)(F)F)c2)cc1Oc1ccc(C=O)cc1 [Example 61, N-(1-{3-[1-ethyl-5-(4-formylphenoxy)-1H-pyrazol-3-yl]phenyl}-1-methylethyl)-2,2,2-trifluoroethanesulfonamide]
< 200	< 200	CCn1nc(-c2cccc(C(C)(C)NS(=O)(=O)CC(F)(F)F)c2)cc1Oc1ccc(CO)cc1 [Example 62, N-[1-(3-{1-ethyl-5-[4-(hydroxymethyl)phenoxy]-1H-pyrazol-3-yl}phenyl)-1-methylethyl]-2,2,2-trifluoroethanesulfonamide]
< 200	< 200	CCn1nc(-c2cccc(C(C)(C)NS(=O)(=O)CC(F)(F)F)c2)cc1Oc1ccc(CF)cc1 [Example 63, N-[1-(3-{1-ethyl-5-[4-(fluoromethyl)phenoxy]-1H-pyrazol-3-yl}phenyl)-1-methylethyl]-2,2,2-trifluoroethanesulfonamide]
< 200	< 200	CCn1nc(-c2cccc(C(C)(C)NS(=O)(=O)CC(F)(F)F)c2)cc1Oc1ccc(C(F)F)cc1 [Example 64, N-[1-(3-{5-[4-(difluoromethyl)phenoxy]-1-ethyl-1H-pyrazol-3-yl}phenyl)-1-methylethyl]-2,2,2-trifluoroethanesulfonamide]
< 200	< 200	CCn1nc(-c2cccc(C(C)(C)NS(=O)(=O)CC(F)(F)F)c2)cc1Oc1ccc(C(C)O)cc1 (stereo not shown) [Example 65, N-[1-(3-{1-ethyl-5-[4-(1-hydroxyethyl)phenoxy]-1H-pyrazol-3-yl}phenyl)-1-methylethyl]-2,2,2-trifluoroethanesulfonamide]
< 200	< 200	CCn1nc(-c2cccc(C(C)(C)NS(=O)(=O)CC(F)(F)F)c2)cc1Oc1ccc(C(O)C(C)C)cc1 (stereo not shown) [Example 66, N-[1-(3-{1-ethyl-5-[4-(1-hydroxy-2-methylpropyl)phenoxy]-1H-pyrazol-3-yl}phenyl)-1-methylethyl]-2,2,2-trifluoroethanesulfonamide]
< 200	< 200	CCC(O)c1ccc(Oc2cc(-c3cccc(C(C)(C)NS(=O)(=O)CC(F)(F)F)c3)nn2CC)cc1 (stereo not shown) [Example 67, N-[1-(3-{1-ethyl-5-[4-(1-hydroxypropyl)phenoxy]-1H-pyrazol-3-yl}phenyl)-1-methylethyl]-2,2,2-trifluoroethanesulfonamide]
< 200	< 200	CCn1nc(-c2cccc(C(C)(C)NS(=O)(=O)CC(F)(F)F)c2)cc1Oc1ccc(C(C)F)cc1 (stereo not shown) [Example 68, N-[1-(3-{1-ethyl-5-[4-(1-fluoroethyl)phenoxy]-1H-pyrazol-3-yl}phenyl)-1-methylethyl]-2,2,2-trifluoroethanesulfonamide]
< 200	< 200	CCn1nc(-c2cccc(C(C)(C)NS(=O)(=O)CC(F)(F)F)c2)cc1Oc1ccc(C(C)=O)cc1 [Example 69, N-(1-{3-[5-(4-acetylphenoxy)-1-ethyl-1H-pyrazol-3-yl]phenyl}-1-methylethyl)-2,2,2-trifluoroethanesulfonamide]
< 200	< 200	CCn1nc(-c2cccc(C(C)(C)NS(=O)(=O)CC(F)(F)F)c2)cc1Oc1ccc(C(C)(C)O)cc1 [Example 70, N-[1-(3-{1-ethyl-5-[4-(1-hydroxy-1-methylethyl)phenoxy]-1H-pyrazol-3-yl}phenyl)-1-methylethyl]-2,2,2-trifluoroethanesulfonamide]
< 200	< 200	CCn1nc(-c2cccc(C(C)(C)NS(=O)(=O)CC(F)(F)F)c2)cc1Oc1ccc(C(O)C(F)(F)F)cc1 (stereo not shown) [Example 71, N-[1-(3-{1-ethyl-5-[4-(2,2,2-trifluoro-1-hydroxyethyl)phenoxy]-1H-pyrazol-3-yl}phenyl)-1-methylethyl]-2,2,2-trifluoroethanesulfonamide]
< 200	< 200	CCn1nc(-c2cccc(C(C)(C)NS(=O)(=O)CC(F)(F)F)c2)cc1Oc1ccc(C(F)C(F)(F)F)cc1 (stereo not shown) [Example 72, N-[1-(3-{1-ethyl-5-[4-(1,2,2,2-tetrafluoroethyl)phenoxy]-1H-pyrazol-3-yl}phenyl)-1-methylethyl]-2,2,2-trifluoroethanesulfonamide]
< 200	< 200	CCn1nc(-c2cccc(C(C)(C)NS(=O)(=O)CC(F)(F)F)c2)cc1Oc1ccc(C(=O)C(F)(F)F)cc1 [Example 73, N-[1-(3-{1-ethyl-5-[4-(trifluoroacetyl)phenoxy]-1H-pyrazol-3-yl}phenyl)-1-methylethyl]-2,2,2-trifluoroethanesulfonamide]
< 200	< 200	CCn1nc(-c2cccc(C(C)(C)NS(=O)(=O)CC(F)(F)F)c2)cc1Oc1ccc(C(=O)NCC2CCCO2)cc1 (stereo not shown) [Example 74, 4-({1-ethyl-3-[3-(1-methyl-1-{[(2,2,2-trifluoroethyl)sulfonyl]amino}ethyl)phenyl]-1H-pyrazol-5-yl}oxy)-N-(tetrahydrofuran-2-ylmethyl)benzamide]
< 200	< 200	CCn1nc(-c2cccc(C(C)(C)NS(=O)(=O)CC(F)(F)F)c2)cc1Oc1ccc(-c2nnc(C)o2)cc1 [Example 75, N-[1-(3-{1-ethyl-5-[4-(5-methyl-1,3,4-oxadiazol-2-yl)phenoxy]-1H-pyrazol-3-yl}phenyl)-1-methylethyl]-2,2,2-trifluoroethanesulfonamide]
< 200	< 200	CCn1nc(-c2cccc(C(C)(C)NS(=O)(=O)CC(F)(F)F)c2)cc1Oc1ccc(-c2cnco2)cc1 [Example 76, N-[1-(3-{1-ethyl-5-[4-(1,3-oxazol-5-yl)phenoxy]-1H-pyrazol-3-yl}phenyl)-1-methylethyl]-2,2,2-trifluoroethanesulfonamide]
< 200	< 200	CCn1nc(-c2cccc(C(C)(C)NS(=O)(=O)CC(F)(F)F)c2)cc1Oc1ccc(CNCc2ccccn2)cc1 [Example 77, N-(1-{3-[1-ethyl-5-(4-{[(pyridin-2-ylmethyl)amino]methyl}phenoxy)-1H-pyrazol-3-yl]phenyl}-1-methylethyl)-2,2,2-trifluoroethanesulfonamide]
< 200	< 200	CCn1nc(-c2cccc(C(C)(C)NS(=O)(=O)CC(F)(F)F)c2)cc1Oc1ccc(CN2CCOCC2)cc1 [Example 78, N-[1-(3-{1-ethyl-5-[4-(morpholin-4-ylmethyl)phenoxy]-1H-pyrazol-3-yl}phenyl)-1-methylethyl]-2,2,2-trifluoroethanesulfonamide]
< 200	< 200	CCn1nc(-c2cccc(C(C)(C)NS(=O)(=O)CC(F)(F)F)c2)cc1Oc1ccc(CNCc2ccccc2)cc1 [Example 79, N-{1-[3-(5-{4-[(benzylamino)methyl]phenoxy}-1-ethyl-1H-pyrazol-3-yl)phenyl]-1-methylethyl}-2,2,2-trifluoroethanesulfonamide]
< 200	< 200	CCn1nc(-c2cccc(C(C)(C)NS(=O)(=O)CC(F)(F)F)c2)cc1Oc1ccc(CN2CC=C(C(F)(F)F)CC2)cc1 [Example 80, N-(1-{3-[1-ethyl-5-(4-{[4-(trifluoromethyl)-3,6-dihydropyridin-1(2H)-yl]methyl}phenoxy)-1H-pyrazol-3-yl]phenyl}-1-methylethyl)-2,2,2-trifluoroethanesulfonamide]
< 200	< 200	CCn1nc(-c2cccc(C(C)(C)NS(=O)(=O)CC(F)(F)F)c2)cc1Oc1ccc(CNCC(=O)OC)cc1 [Example 81, methyl N-[4-({1-ethyl-3-[3-(1-methyl-1-{[(2,2,2-trifluoroethyl)sulfonyl]amino}ethyl)phenyl]-1H-pyrazol-5-yl}oxy)benzyl]glycinate]
< 200	< 200	CCn1nc(-c2cccc(C(C)(C)NS(=O)(=O)CC(F)(F)F)c2)cc1Oc1ccc(CNc2ccc(OC)cc2)cc1 [Example 82]
< 200	< 200	CCn1nc(-c2cccc(C(C)(C)NS(=O)(=O)CC(F)(F)F)c2)cc1Oc1ccc(CNc2ccon2)cc1 [Example 83, N-{1-[3-(1-ethyl-5-{4-[(isoxazol-3-ylamino)methyl]phenoxy}-1H-pyrazol-3-yl)phenyl]-1-methylethyl}-2,2,2-trifluoroethanesulfonamide]
< 200	< 200	CCn1nc(-c2cccc(C(C)(C)NS(=O)(=O)CC(F)(F)F)c2)cc1Oc1ccc(CNc2ccccc2)cc1 [Example 84, N-[1-(3-{5-[4-(anilinomethyl)phenoxy]-1-ethyl-1H-pyrazol-3-yl}phenyl)-1-methylethyl]-2,2,2-trifluoroethanesulfonamide]
< 200	< 200	CCn1nc(-c2cccc(C(C)(C)NS(=O)(=O)CC(F)(F)F)c2)cc1Oc1ccc(CNc2cccnc2)cc1 [Example 85, N-{1-[3-(1-ethyl-5-{4-[(pyridin-3-ylamino)methyl]phenoxy}-1H-pyrazol-3-yl)phenyl]-1-methylethyl}-2,2,2-trifluoroethanesulfonamide]
